According to PMC9658545, “From Nature to Synthetic Compounds: Novel 1(N),2,3 Trisubstituted-5-oxopyrrolidines Targeting Multiple Myeloma Cells” (International Journal of Molecular Sciences, 2022):
≈ marks a conversion by molar mass, not a printed value. Where two headings read alike, the source gives them in different places.

Tests used:
[1] = tested on: RPMI 8226 cells; experiment: MTT assay of cell viability in RPMI 8226 cells; format: cell-based, Human; settings: for fold more active than the reference compound Hib-ester: after 24 h of treatment; for profile in MTT and Trypan blue tests compared with racemate: enantiomers of 13, 10, 100 and 500 µM
Protocol: RPMI 8226 cells were treated with different concentrations of all compounds (10, 100 and 500 µM) at 24 h. The concentrations have been chosen based on the results previously obtained with Hib-ester. MTT assay was performed to assess cell viability and calculate the IC50 (Table 1). For compounds not showing a significant reduction of cell viability at the concentration of 500 µM, the IC50 was not calculated, and they have been considered not effective. Untreated cells were used as control (CTRL).
Human multiple myeloma RPMI 8226 cells were cultured in RPMI 1640 medium supplemented with 10% fetal bovine serum, 1% L-glutamine and 1% penicillin and streptomycin (Euroclone, Italy). Human glioblastoma U87-MG cells were cultured in DMEM low glucose supplemented with 10% fetal bovine serum, 1% L-glutamine and 1% penicillin and streptomycin (Euroclone, Italy). Cells were incubated in a humidified incubator at 37 °C and 5% CO2. A stock solution of all compounds in DMSO (50 mM) was prepared and then directly diluted in culture medium.
Cells were seeded in 96-well plates at a density of 1 × 10^4 cells/well and were treated after 24 h with RA, AM or SU molecules. After 24 h, a 3-(4,5-dimethylthiazol-2-yl)-2,5-diphenyltetrazolium bromide (MTT, Sigma Aldrich, United States) solution was added to each well to reach a final concentration of 0.5 mg/mL. After 4 h of incubation (4 h for RPMI 8226 cells), formazan salt was solubilized in ethanol and absorbance was measured at 570 nm in a microplate reader (BMG-Labtech, Ortenberg, Germany).

[2] = tested on: RPMI 8226 cells; experiment: Trypan blue vital count assay (viable and dead cells); format: cell-based, Human; settings: 100 µM
Protocol: RPMI 8226 cells treated with Bortezomib (BTZ) 1, 5 and 10 nM were used as positive control for all experiments (Figure S2, Supplementary Information). Cells were seeded in 6-well plates at a density of 2.5 × 10^5 cells/well and were treated after 24 h with different concentrations of RA molecules. After 24 h of treatment, cells were collected and stained with Trypan blue vital dye (Sigma Aldrich, Burlington, VT, USA). Viable and dead cells were then counted in a hemocytometer under a light microscope.

[3] = tested on: RPMI 8226 cells; experiment: MTT assay of cell viability in RPMI 8226 cells; format: cell-based, Human; settings: for change of MTT efficacy over time: 24, 48 and 72 h; for IC50: Homo sapiens
[4] = biological target: T1, proteasome (Homo sapiens, UniProt P28074); experiment: Proteasome activity assay on lysates of treated RPMI 8226 cells (Suc-LLVY-AMC substrate); format: cell-based; settings: for proteasome inhibition activity: after 24 h, 10, 100 and 500 µM; for IC50: RPMI 8226 cells treated 24 h, read-out: IC50 (proteasome inhibition)
T1 construct: endogenous in cells; host or cells: RPMI 8226 (human multiple myeloma)
T1 sequence (P28074 60-263): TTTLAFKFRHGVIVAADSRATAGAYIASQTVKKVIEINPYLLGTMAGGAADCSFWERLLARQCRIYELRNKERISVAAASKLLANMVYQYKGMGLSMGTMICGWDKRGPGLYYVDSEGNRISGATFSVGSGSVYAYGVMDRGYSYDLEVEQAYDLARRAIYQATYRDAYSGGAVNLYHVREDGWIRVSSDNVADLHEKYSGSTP
Protocol: RPMI 8226 cells treated with Bortezomib (BTZ) 1, 5 and 10 nM were used as positive control for all experiments (Figure S2, Supplementary Information).
Cells not used in the Trypan blue assay were lysed to assess proteasome activity. Briefly, cells were resuspended in a lysis buffer (50 mM Hepes Ph 7.5, 150 mM NaCl, 10% glycerol, 1% Triton X-100, 1.5 mM MgCl2, 5 mM EGTA) and were mechanically lysed with a vortex. Obtained protein lysates were centrifuged at 13,500 RPM for 15 min and were quantified using the Bradford method. Some 40 µg of proteins were then loaded in black-96-well plate to perform the proteasome activity assay. In each well, 7.6 mg/mL proteasome substrate (N-Succinyl-Leu-Leu-Val-Tyr-7-Amido-4-Methylcoumarin, Sigma Aldrich, United States) and proteasome buffer (250 mM Hepes pH 7.5, 5 mM EDTA pH 8.0, 0.5% NP-40, 0.01% SDS) were added to the proteins. Fluorescence was measured after 2 h of incubation in a microplate reader (excitation 380 nm, emission 460 nm; BMG-Labtech, Ortenberg, Germany).
RPMI 8226 cells were treated with different concentrations (10, 100 and 500 µM) of each compound and, after 24 hours, proteasome activity assay was performed.
Supplementary Figure S1. Proteasome activity of RPMI 8226 cells treated with (2R,3R/2S,3S)-13, 14, 16 and 20. Proteasome activity was evaluated in cells treated for 24 hours with different concentrations (10, 100 and 500 µM) of compounds. The graphs represent the mean proteasome activity ± SD, compared to untreated controls, arbitrarily set to 100%. ** p < 0.01 vs CTRL.
RPMI 8226 cells treated with BTZ 1, 5 and 10 nM were used as positive control for all experiments. […]
The graphs represent the mean cell number ± SD of viable and dead cells. ** p < 0.01 vs CTRL; C) Proteasome activity of RPMI 8226 cells treated with BTZ. Proteasome activity was evaluated in cells treated for 24 hours with different concentrations (1, 5 and 10 nM) of BTZ. The graphs represent the mean proteasome activity ± SD, compared to untreated controls, arbitrarily set to 100%. ** p < […]

[5] = design: method as in PMID 31323932; settings: cited from earlier work
[6] = tested on: human multiple myeloma RPMI 8226 cells; design: method as in PMID 31323932; settings: at 24 h; cited from earlier work
[7] = design: method as in PMID 31323932; settings: cited from earlier work; remark: listed apart in the source
[8] = tested on: proteasome; design: method as in PMID 31323932; settings: cited from earlier work
[9] = 24 h, MTT assay, concentrations 10, 100 and 500 µM, n.e.* = compounds not effective at 500 µM
[10] = Homo sapiens, RPMI-8226, 24 h, MTT assay, concentrations 10, 100 and 500 µM, n.e.* = compounds not effective at 500 µM, read-out: IC50 μM RPMI8226
[11] = Homo sapiens, RPMI-8226, 24 h of treatment, read-out: IC50 (MTT)
[12] = 24 h, MTT assay, concentrations 10, 100 and 500 µM, n.e.* = compounds not effective at 500 µM, read-out: IC50 μM RPMI8226
[13] = 24 h of treatment, read-out: IC50 (MTT)

1-Benzyl-2-(3,5-dimethoxyphenyl)-5-oxopyrrolidine-3-carboxylic Acid [(2R,3R/2S,3S)-15]
IC50 μM RPMI8226 [1, 9]: n.e.*

2-(3,5-Dimethoxyphenyl)-1-isobutyl-5-oxopyrrolidine-3-carboxylic Acid [(2R,3R/2S,3S)-11]
IC50 μM RPMI8226 [1, 9]: n.e.*

O=C(O)C1CC(=O)N(Cc2ccccc2)C1c1ccccc1 (racemic) [(2R,3R/2S,3S)-13, 1-Benzyl-5-oxo-2-phenylpyrrolidine 3-Carboxylic Acid]
IC50 [1, 10]: 169 ± 21 µM | IC50 [1, 11]: < 350 µM | fold more active than the reference compound Hib-ester [1]: at least 6 fold | cell death (Trypan blue vital count) [2]: significant increase in cell death | change of MTT efficacy over time [3]: time-dependent effect | IC50 ([3]; RPMI-8226, 48 h): 85 µM | IC50 ([3]; RPMI-8226, 72 h): 15 µM | fold more active than Hib-ester in reducing RPMI 8226 cells growth ([3]; after 24 and 72 h of treatment): twelve-fold more active | proteasome inhibition activity [4]: most effective

CCCCN1CC(C(=O)O)CC1=O (racemic) [(S/R)-4]
IC50 μM RPMI8226 [1, 9]: n.e.*

CCCCN1CC(C(=O)OC)CC1=O (racemic) [(S/R)-5, Methyl 1-Butyl-5-oxopyrrolidine-3-carboxylate]
IC50 μM RPMI8226 [1, 9]: n.e.*

COC(=O)C1CNC(=O)C1 (racemic) [(S/R)-6]
IC50 μM RPMI8226 [1, 9]: n.e.*

COC(=O)C1CC(=O)N(C)C1 (racemic) [(S/R)-7, Methyl 1-Methyl-5-oxopyrrolidine-3-carboxylate]
IC50 μM RPMI8226 [1, 9]: n.e.*

O=C(O)C1CC(=O)N(Cc2ccccc2)C1c1ccccc1 (single isomer, unassigned; (+)) [(+)-(2S,3S)-13]
profile in MTT and Trypan blue tests compared with racemate [1]: less antiproliferative properties | IC50 [4]: 189 ± 17 µM

O=C(O)C1CC(=O)N(Cc2ccccc2)C1c1ccccc1 (single isomer, unassigned; (-)) [(−)-(2R,3R)-13]
profile in MTT and Trypan blue tests compared with racemate [1]: profile comparable with racemate | IC50 [4]: 90 ± 8 µM | activity relative to the opposite enantiomer in the biological assays ([4]; enantiomers of 13): twofold more active

O=C1CC(C(=O)O)C(c2ccccc2)O1 [(2R,3R/2S,3S)-1]
IC50 μM RPMI8226 [1, 9]: n.e.*

COC(=O)[C@@H]1CC(=O)O[C@@H]1c1ccccc1 [(2R,3R/2S,3S)-2, Methyl (2S,3R)-5-Oxo-2phenyltetrahydrofuran-3-Carboxylate]
IC50 μM RPMI8226 [1, 9]: n.e.*

COC(=O)C1CC(=O)NC1C(=O)OC [(2R,3R/2S,3S)-8, Dimethyl 5-Oxopyrolidine-2,3-dicarboxylate]
IC50 μM RPMI8226 [1, 9]: n.e.*

CC(C)CN1C(=O)CC(C(=O)O)C1c1ccccc1 [(2R,3R/2S,3S)-9, 1-Isobutyl-5-oxo-2-phenylpyrrolidine 3-Carboxylic Acid]
IC50 μM RPMI8226 [1, 9]: n.e.* | melting point: 120.6 to 122.7 °C

COC(=O)C1CC(=O)N(CC(C)C)C1c1ccccc1 [(2R,3R/2S,3S)-10, Methyl 1-Isobutyl-5-oxo-2-phenylpyrrolidine-3-carboxylate]
IC50 [1, 10]: 265 ± 49 µM | IC50 [1, 11]: < 350 µM | fold more active than the reference compound Hib-ester [1]: at least 6 fold

COC(=O)C1CC(=O)N(Cc2ccccc2)C1c1ccccc1 [(2R,3R/2S,3S)-14, Methyl 1-Benzyl-5-oxo-2-phenylpyrrolidine-3-carboxylate]
IC50 [1, 10]: 61 ± 12 µM | IC50 [1, 11]: < 350 µM | fold more active than the reference compound Hib-ester [1]: 34 fold | fold more active than the reference compound Hib-ester ([1]; listed as 14): at least 6 fold | cell death (Trypan blue vital count) [2]: significant increase in cell death | change of MTT efficacy over time [3]: time-dependent effect | IC50 ([3]; RPMI-8226, 48 h): 43 µM | IC50 ([3]; RPMI-8226, 72 h): 34 µM | proteasome inhibition at the lowest evaluated concentration ([4]; 10 µM, 24 h): significant inhibition | proteasome inhibition activity [4]: most effective

CC(C)CN1C(=O)CCC(C(=O)O)C1c1ccccc1 [(2R,3R/2S,3S)-17, 1-Isobutyl-6-oxo-2-phenylpiperidine 3-Carboxylic Acid]
IC50 μM RPMI8226 [1, 9]: n.e.*

COC(=O)C1CCC(=O)N(CC(C)C)C1c1ccccc1 [(2R,3R/2S,3S)-18, Methyl 1-Isobutyl-6-oxo-2-phenylpiperidine-3-carboxylate]
IC50 [1, 10]: 301 ± 29 µM | IC50 [1, 11]: < 350 µM | fold more active than the reference compound Hib-ester [1]: at least 6 fold

O=C(O)C1CCC(=O)N(Cc2ccccc2)C1c1ccccc1 [(2R,3R/2S,3S)-19, 1-Benzyl-6-oxo-2-phenylpiperidine 3-Carboxylic Acid]
IC50 μM RPMI8226 [1, 9]: n.e.*

COC(=O)C1CCC(=O)N(Cc2ccccc2)C1c1ccccc1 [(2R,3R/2S,3S)-20, Methyl 1-Benzyl-6-oxo-2-phenylpiperidine-3-carboxylate]
IC50 [1, 10]: 152 ± 29 µM | IC50 [1, 11]: < 350 µM | fold more active than the reference compound Hib-ester [1]: at least 6 fold | change of MTT efficacy over time [3]: did not show a significant increase in efficacy over time

COC(=O)[C@@H]1CCC(=O)N1 [(S)-3, (S)-Methyl-5-oxopyrrolidine-2-carboxylate]
IC50 μM RPMI8226 [1, 9]: n.e.*

COC(=O)C1OC(=O)CC1(O)C(=O)OC (centres unmarked) [Hib-ester]
neurotoxic effects [5]: without neurotoxic effects | IC50 (antiproliferative properties) [6]: 450 µg/mL (≈ 2060 µM) | effect on migration and cell invasion [7]: reduce migration and cell invasion | proteasome inhibition [8]: inhibit proteasome

Methyl 1-Benzyl-2-(3,5-dimethoxyphenyl)-5-oxopyrrolidine-3-carboxylate [(2R,3R/2S,3S)-16]
IC50 [1, 12]: 138 ± 27 µM | IC50 [1, 13]: < 350 µM | fold more active than the reference compound Hib-ester [1]: at least 6 fold | change of MTT efficacy over time [3]: did not show a significant increase in efficacy over time

Methyl 2-(3,5-Dimethoxyphenyl)-1-isobutyl-5-oxopyrrolidine-3-carboxylate [(2R,3R/2S,3S)-12]
IC50 [1, 12]: 263 ± 41 µM | IC50 [1, 13]: < 350 µM | fold more active than the reference compound Hib-ester [1]: at least 6 fold
